Assay results published in patent US4755527A, “Aryl substituted aminomethyl benzene derivatives” (priority 1985, dated 1988).

Columns and labels:
[1] = tested on: ventricular arrhythmias induced by two-stage ligation of the left anterior descending coronary artery (Harris dog); assay: Antiarrhythmic activity by coronary ligation in the Harris dog model (i.v. infusion); assay type: in vivo, dog (adult mongrel); conditions: Harris dog, IV infusion, ED is the effective dose required to sustain normal sinus rhythm; for minimal effective dose: Canis lupus familiaris, read-out: Antiarrhythmic ED in Harris Dog
Source text: The following examples describe the pharmacological evaluation of the compounds made in accordance with the present invention. In particular, these examples describe the evaluation of antiarrhythmic activity by coronary ligation in the well known Harris dog model. Ventricular arrhythmias were induced in adult mongrel dogs (10-15 kg) of either sex by two-stage ligation of the left anterior descending coronary artery. […] The test compound in saline was infused intravenously at a cumulative rate of […] to 1.2 mg/kg/min (base) unitl normal sinus rhythm or toxicity occurred. Normal sinus rhythm was defined as 90-100% normal complexes over a 5 min period.

[2] = tested on: Guinea Pig Ileum; assay: In vitro evaluation of anticholinergic activity in the isolated guinea pig ileum; design: species or system guinea pig (male Hartley); conditions: 4 mg/L, inhibition of field-stimulated contractile tension; for inhibition at 4 µg/mL: Cavia porcellus, read-out: Anticholinergic Inhibition of Guinea Pig Ileum (% inhibition at 4 mg/L)
Method: The following examples describe the in vitro evaluation of anticholinergic activity in the isolated guinea pig ileum. Fasted, male Hartley guinea pigs (300-400 g) were killed by a blow to the head. […] One end of the ileal strip was impaled onto a platinum wire electrode; and the other end was tied to a stationary glass rod. Basal tension was set at 0.1-0.3 g and peak developed tension in response to field stimulation (100-150 V, 10 msec pulse duration, 0.2 Hz) was measured with a tension transducer.

[3] = tested on: ventricular arrhythmias induced by ouabain (Ouabain dog); assay: Antiarrhythmic activity in the Ouabain dog model (i.v. infusion); assay type: in vivo; conditions: Ouabain dog, IV infusion, ED is the effective dose required to sustain normal sinus rhythm; for minimal effective dose: Canis lupus familiaris, read-out: Antiarrhythmic ED in Ouabain Dog
Method: The following examples describe the pharmacological evaluation of the compounds in accordance with the present invention. In particular, these examples describe the evaluation of antiarrhythmic activity in the Oubain dog model. […] The test compound was infused intravenously in saline at a rate of about 0.3 to about 5 mg/kg/min until normal sinus rhythm or toxicity occurred. Normal sinus rhythm was defined as 90-100% normal complexes over a 5 minute period.

With “2,6-bis(pyrrolidinylmethyl)-4-benzyl-phenol [XXXVI]” the “Antiarrhythmic ED in Harris Dog” value [1] was “low activity” and the “Anticholinergic Inhibition of Guinea Pig Ileum (% inhibition at 4 mg/L)” value [2] was 14%.
Work on Oc1c(CN2CCCC2)cc(OCc2ccccc2)cc1CN1CCCC1 [Example I, 4-benzyloxy-2,6-bis(pyrrolidinylmethyl)phenol] yielded a minimal effective dose [1] of 4.5 mg/kg, a minimal effective dose [3] of 1.5 mg/kg and an inhibition at 4 µg/mL [2] of 62%.
Work on O=C(c1ccccc1)c1cc(CN2CCCC2)c(O)c(CN2CCCC2)c1 [Example II, 4-hydroxy-3,5-bis(pyrrolidinylmethyl)benzophenone] yielded a minimal effective dose [1] of 11 mg/kg, a minimal effective dose [3] of 1.9 mg/kg and an inhibition at 4 µg/mL [2] of 9%.
O=C(Nc1cc(CN2CCCC2)c(O)c(CN2CCCC2)c1)c1ccccc1 [Example III, N-benzoyl-3,5-bis(N-pyrrolidinylmethyl)-4-hydroxyaniline] was tested, and the minimal effective dose [1] was 5 mg/kg, the minimal effective dose [3] was 3.4 mg/kg and the inhibition at 4 µg/mL [2] was 35%.
For O=C(Nc1cc(CN2CCCC2)c(O)c(CN2CCCC2)c1)c1ccccc1Cl [Example X, N--(2-chlorobenzoyl)-3,5,-bis(N--pyrrolidinylmethyl)-4-hydroxyaniline], the minimal effective dose [3] was 5.8 mg/kg and the inhibition at 4 µg/mL [2] was 0%.
O=C(Nc1cc(CN2CCCC2)c(O)c(CN2CCCC2)c1)c1cccs1 [Example XX, N--(2-thiophenecarbonyl)-3,5-bis(N--pyrrolidinylmethyl)-4-hydroxyaniline] was tested, and the minimal effective dose [3] was 1.9 mg/kg and the inhibition at 4 µg/mL [2] was 4%.
O=C(NCc1cc(CN2CCCC2)c(O)c(CN2CCCC2)c1)c1ccccc1 [Example XXII, N-(benzoyl)-3,5-bis(pyrrolidinylmethyl)-4-hydroxybenzylamine] gave a minimal effective dose [3] of 3 mg/kg and an inhibition at 4 µg/mL [2] of 32%.
CC(=O)Nc1cc(CN2CCCC2)c(O)c(CN2CCCC2)c1 [Example XXIX, 3,5-bis(N-pyrrolidinylmethyl)-4-hydroxyacetanilide] was tested, and the “Antiarrhythmic ED in Harris Dog” value [1] was “inactive”.
For O=C(Cc1cccs1)Nc1cc(CN2CCCC2)c(O)c(CN2CCCC2)c1 [Example XXI], the “Antiarrhythmic ED in Ouabain Dog” value [3] was “low activity” and the inhibition at 4 µg/mL [2] was 13%.
With Nc1cc(CN2CCCC2)c(O)c(CN2CCCC2)c1 [Example XXX, 3,5-bis(N-pyrrolidinylmethyl)-4-hydroxyaniline] the “Antiarrhythmic ED in Harris Dog” value [1] was “inactive” and the inhibition at 4 µg/mL [2] was 3%.
Work on O=C(Nc1cc(CN2CCOCC2)c(O)c(CN2CCOCC2)c1)c1ccccc1 [Example XXXI, N-(benzoy)3,5-bis(morpholinomethyl)-4-hydroxyaniline] yielded a minimal effective dose [3] of 16.5 mg/kg and an inhibition at 4 µg/mL [2] of 37%.
O=C(Nc1cc(CN2CCCCC2)c(O)c(CN2CCCCC2)c1)c1ccccc1 [Example XXXII, N-(benzoyl)3,5-bis(piperidinylmethyl)-4-hydroxyaniline] was tested, and the minimal effective dose [3] was 11 mg/kg and the inhibition at 4 µg/mL [2] was 33%.
Work on O=C(Nc1ccccc1)c1cc(CN2CCCC2)c(O)c(CN2CCCC2)c1 [Example XXXIII, N-([3,5-bis(pyrrolidinylmethyl)-4-hydroxy]benzoyl)-aniline] yielded a minimal effective dose [3] of 3.5 mg/kg.
In the case of O=C(Nc1cc(CN2CCCC2)c(O)c(CN2CCCC2)c1)c1ccc(Cl)cc1 [IV, N--(4-chlorobenzoyl)-3,5,-bis(N--pyrrolidinylmethyl)-4-hydroxyaniline], the minimal effective dose [1] is reported as 7 mg/kg, the minimal effective dose [3] is reported as 1.5 mg/kg and the inhibition at 4 µg/mL [2] is reported as 49%.
With O=C(Nc1cc(CN2CCCC2)c(O)c(CN2CCCC2)c1)c1cccc(C(F)(F)F)c1 [IX, N--(3-trifluoromethylbenzoyl)-3,5,-bis(N--pyrrolidinylmethyl)-4-hydroxyaniline] the minimal effective dose [3] was 2.25 mg/kg and the inhibition at 4 µg/mL [2] was 62%.
Cc1cccc(C)c1C(=O)Nc1cc(CN2CCCC2)c(O)c(CN2CCCC2)c1 [IXX, N--(2,6,dimethylbenzoyl)-3,5,-bis(N--pyrrolidinylmethyl)-4-hydroxyaniline] was tested, and the minimal effective dose [3] was 4.3 mg/kg and the inhibition at 4 µg/mL [2] was 15%.
Cc1ccc(C(=O)Nc2cc(CN3CCCC3)c(O)c(CN3CCCC3)c2)cc1 [V, N--(4-methylbenzoyl)-3,5,-bis(N--pyrrolidinylmethyl)-4-hydroxyaniline] gave a minimal effective dose [1] of 15 mg/kg, a minimal effective dose [3] of 3 mg/kg and an inhibition at 4 µg/mL [2] of 22%.
With O=C(Nc1cc(CN2CCCC2)c(O)c(CN2CCCC2)c1)c1ccc(Cl)cc1Cl [VI, N--(2,4,dichorobenzoyl)-3,5,-bis(N--pyrrolidinylmethyl)-4-hydroxyaniline] the “Antiarrhythmic ED in Ouabain Dog” value [3] was “low activity” and the inhibition at 4 µg/mL [2] was 11%.
Molecule O=C(Nc1cc(CN2CCCC2)c(O)c(CN2CCCC2)c1)c1ccc([N+](=O)[O-])cc1 [VII, N--(4-nitrobenzoyl)-3,5,-bis(N--pyrrolidinylmethyl)-4-hydroxyaniline] has a minimal effective dose [3] of 11 mg/kg and an inhibition at 4 µg/mL [2] of 24%.
Molecule COc1ccc(C(=O)Nc2cc(CN3CCCC3)c(O)c(CN3CCCC3)c2)cc1 [VIII, N--(4-methoxybenzoyl)-3,5,-bis(N--pyrrolidinylmethyl)-4-hydroxyaniline] has a minimal effective dose [3] of 7.2 mg/kg and an inhibition at 4 µg/mL [2] of 24%.
O=C(Nc1cc(CN2CCCC2)c(O)c(CN2CCCC2)c1)c1cccc(Cl)c1 [XI, N--(3-chlorobenzoyl)-3,5,-bis(N--pyrrolidinylmethyl)-4-hydroxyaniline] gave a minimal effective dose [3] of 3.75 mg/kg and an inhibition at 4 µg/mL [2] of 37%.
O=C(Nc1cc(CN2CCCC2)c(O)c(CN2CCCC2)c1)c1ccccc1C(F)(F)F [XII, N--(2-trifluoromethylbenzoyl)-3,5,-bis(N--pyrrolidinylmethyl)-4-hydroxyaniline] showed a minimal effective dose [3] of 6.2 mg/kg and an inhibition at 4 µg/mL [2] of 0%.
COc1ccccc1C(=O)Nc1cc(CN2CCCC2)c(O)c(CN2CCCC2)c1 [XIV, N--(2-methoxybenzoyl)-3,5,-bis(N--pyrrolidinylmethyl)-4-hydroxyaniline] showed a minimal effective dose [3] of 3 mg/kg and an inhibition at 4 µg/mL [2] of 31%.
In the case of Cc1cccc(C(=O)Nc2cc(CN3CCCC3)c(O)c(CN3CCCC3)c2)c1 [XV, N--(3-methylbenzoyl)-3,5,-bis(N--pyrrolidinylmethyl)-4-hydroxyaniline], the minimal effective dose [3] is reported as 5.3 mg/kg and the inhibition at 4 µg/mL [2] is reported as 32%.
Cc1ccccc1C(=O)Nc1cc(CN2CCCC2)c(O)c(CN2CCCC2)c1 [XVI, N--(2-methylbenzoyl)-3,5,-bis(N--pyrrolidinylmethyl)-4-hydroxyaniline] showed a minimal effective dose [3] of 2 mg/kg and an inhibition at 4 µg/mL [2] of 9.4%.
With O=C(Nc1cc(CN2CCCC2)c(O)c(CN2CCCC2)c1)c1c(Cl)cccc1Cl [XVII, N--(2,6,dichlorobenzoyl)-3,5,-bis(N--pyrrolidinylmethyl)-4-hydroxyaniline] the minimal effective dose [3] was 2 mg/kg and the inhibition at 4 µg/mL [2] was 14.3%.
For COc1cc(C(=O)Nc2cc(CN3CCCC3)c(O)c(CN3CCCC3)c2)cc(OC)c1OC [XVIII], the “Antiarrhythmic ED in Ouabain Dog” value [3] was “inactive” and the inhibition at 4 µg/mL [2] was 5.9%.
O=C(NCc1cc(CN2CCCC2)c(O)c(CN2CCCC2)c1)c1ccc(Cl)cc1 [XXIII, N--(4-chlorobenzoyl)-3,5-bis(pyrrolidinylmethyl)-4-hydroxybenzylamine] gave a minimal effective dose [3] of 3.8 mg/kg and an inhibition at 4 µg/mL [2] of 56%.
Molecule O=C(NCc1cc(CN2CCCC2)c(O)c(CN2CCCC2)c1)c1ccccc1C(F)(F)F [XXIV, N--(2-trifluoromethylbenzoyl)-3,5-bis(pyrrolidinylmethyl)-4-hydroxybenzylamine] has a minimal effective dose [3] of 1.7 mg/kg and an inhibition at 4 µg/mL [2] of 8.5%.
For O=C(NCc1cc(CN2CCCC2)c(O)c(CN2CCCC2)c1)c1cccc(C(F)(F)F)c1 [XXV, N--(3-trifluoromethylbenzoyl)-3,5-bis(pyrrolidinylmethyl)-4-hydroxybenzylamine], the minimal effective dose [3] was 5.5 mg/kg and the inhibition at 4 µg/mL [2] was 72%.
Work on O=C(NCc1cc(CN2CCCC2)c(O)c(CN2CCCC2)c1)c1ccccc1Cl [XXVI, N--(2-chlorobenzoyl)-3,5-bis(pyrrolidinylmethyl)-4-hydroxybenzylamine] yielded a minimal effective dose [3] of 2.3 mg/kg and an inhibition at 4 µg/mL [2] of 18%.
O=C(NCc1cc(CN2CCCC2)c(O)c(CN2CCCC2)c1)c1cccc(Cl)c1 [XXVII, N--(3-chlorobenzoyl)-3,5-bis(pyrrolidinylmethyl)-4-hydroxybenzylamine] was tested, and the minimal effective dose [3] was 9.8 mg/kg and the inhibition at 4 µg/mL [2] was 78%.
In the case of Nc1ccc(C(=O)Nc2cc(CN3CCCC3)c(O)c(CN3CCCC3)c2)cc1 [XXVIII, N-(4-aminobenzoyl)-3,5-bis(pyrrolidinylmethyl)-4-hydroxyaniline], the minimal effective dose [3] is reported as 4.5 mg/kg and the inhibition at 4 µg/mL [2] is reported as 0%.
CN(C(=O)c1ccccc1)c1cc(CN2CCCC2)c(O)c(CN2CCCC2)c1 [XXXIV] gave a minimal effective dose [3] of 16 mg/kg and an inhibition at 4 µg/mL [2] of 16%.
O=C(NCc1cc(CN2CCCC2)c(O)c(CN2CCCC2)c1)c1ccc(C(F)(F)F)cc1 [XXXV, N-(4-trifluoromethyl)-3,5-bis(pyrrolidinylmethyl)-4-hydroxybenzylamine] gave a minimal effective dose [3] of 4.5 mg/kg and an inhibition at 4 µg/mL [2] of 49%.
